Patent US12281299B2, “Control of nitrogen fixation in rhizobia that associate with cereals” (Massachusetts Institute of Technology, priority 2019, dated 2025)

These compounds were tested on R. sp. IRBG74 (assay: Genetic part characterization for Rhizobia (promoters, RBSs, terminators, inducible systems; fluorescence reporter, flow cytometry)). Details: synthetic RBS strength in R. sp. IRBG74; plasmid pMR-40, IPTG-inducible system, 1 mM IPTG induction.
Format: cell-based, Rhizobium sp.
Text: Construction and characterization genetic parts for Rhizobia. Genetic part libraries were built on a pBBR1-ori plasmid pMR-1 using Gibson assembly (New England Biolabs, Cat # E2611). The fluorescence proteins, GFPmut3b and mRFP1 were used as reporters. The Anderson promoter library (Anderson, J. et al. BglBricks: A flexible standard for biological part assembly. 4, 1 (2010)) on the BioBricks Registry were utilized for the characterization of constitutive promoters (FIGS. 11A-11C). To characterize inducible promoters, a regulator protein is constitutively expressed by the PlacIq promoter, and GFP expression is driven by a cognate inducible promoter from the opposite direction, facilitating replacement of the reporter with gene of interest (e.g., T7 RNAP and nifA) and transfer of the controller unit across different plasmid backbones for diverse microbes. The following combinations of cognate regulators and inducible promoters were characterized. IPTG inducible LacI-A1lacO1, DAPG inducible PhlF-PPhl, aTc inducible TetR-PTet, 3OC6HSL inducible LuxR-PLux, salicylic acid inducible NahR-PSal, and cuminic acid inducible CymR-PCym systems were optimized for R. sp. IRBG74 (FIG. 14). Opine inducible OccR-Pocc, and nopaline inducible NocR-Pnoc systems were optimized for A. caulinodans (FIGS. 20A-20F and Tables 9 and 10). For RBS characterization, an IPTG-inducible GFP expression plasmid pMR-40 was used and GFP was expressed to the highest levels with 1 mM IPTG (FIGS. 12A-12B). RBS library for GFP was designed using the RBS library calculator at the highest-resolution mode, and the 3′ end of the 16S rRNA sequences were adjusted according to the species (3′-ACCTCCTTC-5′ for R. sp. IRBG74). Terminators for T7 RNAP were characterized by placing a terminator between two fluorescence reporters expressed from a single T7 wild-type promoter located upstream of the first fluorescence protein GFP. The expression of the two fluorescence proteins is enabled by the controller strain MR18 encoding the IPTG-inducible T7 RNAP system by 1 mM IPTG (FIGS. 13A-13B). The terminator strength (Ts) was determined by normalizing fluorescence levels of a terminator construct by a reference construct pMR-66 where a 40 bp spacer was placed between the reporters. All genetic parts for Rhizobia were characterized as follows.

Question: With “RBST-12 (DNA TAACAATTTCACACATCTAGAGCTAATCATCGCGTACTAAAAAGGCAAGTAATG; chemistry not fully specified)” as the compound, how does the “Strength (GFP, au)” value read?
Answer: Its value is 1138 au.

Question: How did the “Strength (GFP, au)” value turn out when “RBST-13 (DNA TAACAATTTCACACATCTAGAGCTAATCTTCGCGTACTAAAAAGGCAAGTAATG; chemistry not fully specified)” was run?
Answer: Its value is 895.5 au.

Question: “RBST-14 (DNA TAACAATTTCACACATCTAGAGCTAATCTTCGCGTACTAAGAAGGCAAGTAATG; chemistry not fully specified)” was tested. Which “Strength (GFP, au)” value did it give?
Answer: Its value is 632.5 au.

Question: Which “Strength (GFP, au)” value does the source give for “RBST-15 (DNA TAACAATTTCACACATCTAGAGCTAATCATCTCGTACTAAATAGGCAAGTAATG; chemistry not fully specified)” here?
Answer: Its value is 648.5 au.

Question: Which “Strength (GFP, au)” value does the source give for “RBST-16 (DNA TAACAATTTCACACATCTAGAGCTAATCATCTCGTACTAATAAGGCAAGTAATG; chemistry not fully specified)” here?
Answer: Its value is 532 au.

Question: For “RBST-17 (DNA TAACAATTTCACACATCTAGAGCTAATCTTCTCGTACTAAAGAGGCAAGTAATG; chemistry not fully specified)”, which “Strength (GFP, au)” value is on record?
Answer: Its value is 488 au.

Question: Which “Strength (GFP, au)” value does the source give for “RBST-18 (DNA TAACAATTTCACACATCTAGAGCTAATCATCGCGTACTCAATAGGCCAGTAATG; chemistry not fully specified)” here?
Answer: Its value is 305.5 au.

Question: For “RBST-19 (DNA TAACAATTTCACACATCTAGAGCTAATCATCGCGTACTAAGTAGGCAAGTAATG; chemistry not fully specified)”, which “Strength (GFP, au)” value is on record?
Answer: Its value is 242 au.

Question: “RBST-20 (DNA TAACAATTTCACACATCTAGAGCTAATCATCTCGTACTAACGAGGCAAGTAATG; chemistry not fully specified)” was tested. Which “Strength (GFP, au)” value did it give?
Answer: Its value is 248 au.

Question: How did the “Strength (GFP, au)” value turn out when “RBST-21 (DNA TAACAATTTCACACATCTAGAGCTAATCATCGCGTACTCAGCAGGCAAGTAATG; chemistry not fully specified)” was run?
Answer: Its value is 183 au.

Question: Which “Strength (GFP, au)” value does the source give for “RBST-22 (DNA TAACAATTTCACACATCTAGAGCTAATCTTCGCGTACTAAGTAGGCAAGTAATG; chemistry not fully specified)” here?
Answer: Its value is 130 au.

Question: How did the “Strength (GFP, au)” value turn out when “RBST-23 (DNA TAACAATTTCACACATCTAGAGCTAATCTTCGCGTACTAATTAGGCAAGTAATG; chemistry not fully specified)” was run?
Answer: The value was 84.4 au.

Question: Which “Strength (GFP, au)” value does the source give for “RBST-24 (DNA TAACAATTTCACACATCTAGAGCTAATCTTCTCGTACTAACAAGGCAAGTAATG; chemistry not fully specified)” here?
Answer: The value was 75.15 au.

Question: Which “Strength (GFP, au)” value does the source give for “RBST-25 (DNA TAACAATTTCACACATCTAGAGCTAATCATCTCGTACTCAATAGGCAAGTAATG; chemistry not fully specified)” here?
Answer: Its value is 45.45 au.

Question: Which “Strength (GFP, au)” value does the source give for “RBST-26 (DNA TAACAATTTCACACATCTAGAGCTAATCATCTCGTACTAAGCACGCAAGTAATG; chemistry not fully specified)” here?
Answer: Its value is 36 au.

Question: How did the “Strength (GFP, au)” value turn out when “RBST-27 (DNA TAACAATTTCACACATCTAGAGCTAATCATCGCGTACTAACTACGCAAGTAATG; chemistry not fully specified)” was run?
Answer: Its value is 12.2 au.

Question: Which “Strength (GFP, au)” value does the source give for “RBST-28 (DNA TAACAATTTCACACATCTAGAGCTAATCTTCGCGTACTAAGAACGCAAGTAATG; chemistry not fully specified)” here?
Answer: Its value is 13 au.

Question: How did the “Strength (GFP, au)” value turn out when “RBST-29 (DNA TAACAATTTCACACATCTAGAGCTAATCTTCGCGTACTAAAAACGCAAGTAATG; chemistry not fully specified)” was run?
Answer: Its value is 4.6 au.

Question: How did the “Strength (GFP, au)” value turn out when “RBST-30 (DNA TAACAATTTCACACATCTAGAGCTAATCTTCGCGTACTAACAACGCAAGTAATG; chemistry not fully specified)” was run?
Answer: Its value is 2.95 au.

Question: “RBST-31 (DNA TAACAATTTCACACATCTAGAGCTAATCTTCTCGTACTCATGACGCAAGTAATG; chemistry not fully specified)” was tested. Which “Strength (GFP, au)” value did it give?
Answer: Its value is 1.45 au.

These compounds were tested on R. sp. IRBG74 (assay: Nitrogenase assays (Rhizobia strains), acetylene reduction). Details: DAPG-inducible T7 RNAP driving v3.2 refactored pathway in R. sp. IRBG74.
Format: cell-based, Rhizobium sp.
Method: Nitrogenase assays (Rhizobia strains). […] 5 μl of overnight cultures was diluted into 500 μl of UMS medium with 30 mM succinate, 10 mM sucrose, and 10 mM NH4Cl and appropriate antibiotics in 96-deepwell and incubated for 24 h at 30° C., 900 rpm in a Multitron incubator. Cultures were diluted to an OD600 of 0.4 into 2 mL of UMS medium plus 30 mM succinate and 10 mM sucrose supplemented with appropriate antibiotics, 1.43 mM serine and an inducer (if necessary) in 10 mL glass vials with PTFE-silicone septa screw caps. Headspace in the vials was replaced with 99% argon and 1% oxygen gas using a vacuum manifold. Acetylene was injected to 10% (vol/vol) into each culture vial to begin the reaction. […]
Ethylene quantification. Ethylene production was analyzed by gas chromatography using an Agilent 7890A GC system (Agilent Technologies, Inc., CA USA) equipped with a PAL headspace autosampler and flame ionization detector as follows. […] Acetylene and ethylene were detected at 3.0 min and 3.7 min after injection, respectively. Ethylene production was quantified by integrating the 3.7 min peak using Agilent GC/MSD ChemStation Software.
The bacteria were grown in appropriate media, including antibiotics, and then evaluated for nitrogenase activity using an acetylene reduction assay (see Methods and Materials Section). […]

Question: `CC(=O)c1c(O)cc(O)c(C(C)=O)c1O` [DAPG, 2,4-Diacetylphloroglucinol, reference compound] was tested. Which “induction of nitrogenase activity” value did it give?
Answer: Its value is 9 fold.

Each compound was assayed on P. protegens Pf-5 (assay: Genetic part characterization for P. protegens (promoters, RBSs, terminators, inducible systems; fluorescence reporter, flow cytometry)). Details: P. protegens Pf-5, pRO1600 plasmid.
Format: cell-based, Pseudomonas protegens
Text: Construction and characterization genetic parts for P. protegens. Genetic part libraries were built on a pRO1600-ori plasmid pMR-2 using Gibson assembly (New England Biolabs, Cat # E2611). The fluorescence proteins, GFPmut3b and mRFP1 were used as reporters. The Anderson promoter library on the BioBricks Registry were utilized for the characterization of constitutive promoters (FIGS. 11A-11C). The following combinations of cognate regulators and inducible promoters were characterized. IPTG inducible LacI-Ptac, DAPG inducible PhlF-PPhl, aTc inducible TetR-PTet, 3OC6HSL inducible LuxR-PLux, arabinose inducible AraC-PBAD, cuminic acid inducible CymR-PCym, and naringenin inducible FdeR-PFde were optimized (FIGS. 15A-15C). […] RBS library for GFP was designed using the RBS library calculator at the highest-resolution mode, and the 3′ end of the 16S rRNA sequences were adjusted according to the species (3′-ACCTCCTTA-5′ for P. protegens Pf-5). Terminators for T7 RNAP were characterized by placing a terminator between two fluorescence reporters expressed from a single T7 wild-type promoter located upstream of the first fluorescence protein GFP. The expression of the two fluorescence proteins is enabled by an IPTG-inducible T7 RNAP expression system of the controller strain MR7 (FIGS. 13A-13B). All genetic parts for P. protegens Pf-5 were characterized as follows.

Question: Which “function of inducible system” value does the source give for `CC(=O)c1c(O)cc(O)c(C(C)=O)c1O` [DAPG, 2,4-Diacetylphloroglucinol, reference compound] here?
Answer: Its value is “functional”.

These compounds were tested on A. caulinodans ORS571 (assay: not given). Details: sensor controlling NifA(L94Q/D95Q)/RpoN expression in A. caulinodans.
Format: cell-based, Azorhizobium caulinodans
Method: Nitrogenase assays (A. caulinodans and P. stutzeri). Cultures were initiated by inoculating a single colony into 0.2 mL of TY medium supplemented with appropriate antibiotics in 96-deepwell plates and grown overnight at 37° C. and 30° C. for A. caulinodans and P. stutzeri, respectively, 900 rpm in a Multitron incubator. 5 μl of overnight cultures was diluted into 500 μl of UMS medium with 30 mM lactate and 10 mM NH4Cl and appropriate antibiotics in 96-deepwell and incubated for 24 h at 37° C. and 30° C. for A. caulinodans and P. stutzeri, respectively, 900 rpm in a Multitron incubator. Cultures were diluted to an OD600 of 0.4 into 2 mL of UMS medium plus 30 mM lactate supplemented with appropriate antibiotics and an inducer (if necessary) in 10 mL glass vials with PTFE-silicone septa screw caps. Headspace in the vials was replaced with 99% argon plus 1% oxygen gas using a vacuum manifold. Acetylene was injected to 10% (vol/vol) into each culture vial to begin the reaction. The acetylene reduction was carried out for 20 h at 30° C. with shaking at 250 rpm, followed by quenching via the addition of 0.5 mL of 4 M NaOH to each vial.
Ethylene quantification. Ethylene production was analyzed by gas chromatography using an Agilent 7890A GC system (Agilent Technologies, Inc., CA USA) equipped with a PAL headspace autosampler and flame ionization detector as follows. An aliquot of 0.5 mL headspace preincubated to 35° C. for 30 s was injected and separated for 4 min on a GS-CarbonPLOT column (0.32 mm×30 m, 3 microns; Agilent) at 60° C. and a He flow rate of 1.8 mL/min. Detection occurred in a FID heated to 300° C. with a gas flow of 35 mL/min H2 and 400 mL/min air. Acetylene and ethylene were detected at 3.0 min and 3.7 min after injection, respectively. Ethylene production was quantified by integrating the 3.7 min peak using Agilent GC/MSD ChemStation Software.

Question: `N=C(N)NCCCC(NC(CCC(=O)O)C(=O)O)C(=O)O` (stereo not shown) [nopaline, Nopaline] was tested. Which “dynamic range of nitrogenase activity” value did it give?
Answer: Its value is 412 fold.

Question: How did the “nitrogenase activity higher than the wild-type” value turn out when `CC(NC(CCCNC(=N)N)C(=O)O)C(=O)O` (stereo not shown) [octopine, Octopine] was run?
Answer: The value was 40%.

Question: For `O=C([O-])c1ccccc1O.[Na+]` [salicylic acid, Salicylic acid sodium salt], which “dynamic range of nitrogenase activity” value is on record?
Answer: The value was 1000 fold.
